Results taken from PMC7591571, “Identification of a juvenile-hormone signaling inhibitor via high-throughput screening of a chemical library” (Scientific Reports, 2020).

Tests used:
[1] = tested on: T1, JH receptor, methoprene-tolerant protein (Met) / SRC, endogenous in BmN_JF&AR cells; experiment: kJHRE luciferase reporter assay in stable BmN_JF&AR cells; type: cell-based; conditions: agonist, 25 °C, 20 h, pathway read-out
T1 construct: gene Met1; endogenous receptor of BmN cells; receptor not overexpressed; Met paralogue not specified

[2] = tested on: T1, JH receptor, methoprene-tolerant protein (Met) / SRC, endogenous in BmN_JF&AR cells; experiment: as above; type: cell-based; conditions: inhibition of 1 nM JH I response; 25 °C; 20 h; competitive antagonist-like; pathway read-out, direct binding to receptor not demonstrated; read-out: EC50 (the source's name)

## CC/C(=C\CC/C(C)=C/C(=O)OC)CC[C@H]1O[C@@]1(C)CC [JH I]
[1]
  EC50: 0.37 nM

## CC(C)(C)c1ccc(OCCn2cncn2)c(Cl)c1 [JHSI48, N-[2-(4-tert-butyl-2-chlorophenoxy)ethyl]-1H-1,2,4-triazole]
[2]
  IC50: 320 nM
